Data as given in the NIST ThermoML archive (doi:10.1016/j.fluid.2017.12.011).

What was measured:
[1] = Liquid, Ebulliometric method (Recirculating still)
[2] = Boiling temperature at pressure P; conditions: Liquid, Ebulliometric method (Recirculating still)

Cc1cccc(C)c1O [2,6-dimethylphenol]
Conditions	Boiling temperature at pressure P [°C]	vapor or sublimation pressure [kPa]
[1], 418.11 K	–	20
[2], 6.7 kPa	116.91	–
[2], 8.87 kPa	122.99	–
[2], 10.89 kPa	128.28	–
[2], 12.74 kPa	132.49	–
[2], 14.98 kPa	136.82	–
[2], 16.8 kPa	140.18	–
[2], 18.91 kPa	143.50	–
[2], 20 kPa	144.96	–
[2], 21.02 kPa	146.28	–
[2], 22.83 kPa	148.86	–
[2], 33.02 kPa	163.40	–
[2], 35.64 kPa	165.8	–

Cc1cccc(O)c1 [3-methylphenol]
Conditions	Boiling temperature at pressure P [°C]	vapor or sublimation pressure [kPa]
[1], 422.16 K	–	20
[1], 422.28 K	–	20
[2], 9.29 kPa	129.09	–
[2], 11.93 kPa	135.40	–
[2], 14.57 kPa	140.24	–
[2], 16.68 kPa	144.32	–
[2], 18.79 kPa	147.39	–
[2], 20 kPa	149.01	–
[2], 20.91 kPa	150.40	–
[2], 23.02 kPa	152.89	–
[2], 25.13 kPa	155.41	–

Cc1ccccc1O [2-methylphenol]
Conditions	Boiling temperature at pressure P [°C]	vapor or sublimation pressure [kPa]
[1], 411.26 K	–	20
[2], 20 kPa	138.11	–
